In ChEMBL document CHEMBL5291721, “A preclinical secondary pharmacology resource illuminates target-adverse drug reaction associations of marketed drugs” (Nat Commun, 2023):

Key:
[1] = molecular target: T1, Alpha-1A adrenergic receptor (Homo sapiens, UniProt P35348); type: functional, cell-based
T1 sequence (P35348 whole entry): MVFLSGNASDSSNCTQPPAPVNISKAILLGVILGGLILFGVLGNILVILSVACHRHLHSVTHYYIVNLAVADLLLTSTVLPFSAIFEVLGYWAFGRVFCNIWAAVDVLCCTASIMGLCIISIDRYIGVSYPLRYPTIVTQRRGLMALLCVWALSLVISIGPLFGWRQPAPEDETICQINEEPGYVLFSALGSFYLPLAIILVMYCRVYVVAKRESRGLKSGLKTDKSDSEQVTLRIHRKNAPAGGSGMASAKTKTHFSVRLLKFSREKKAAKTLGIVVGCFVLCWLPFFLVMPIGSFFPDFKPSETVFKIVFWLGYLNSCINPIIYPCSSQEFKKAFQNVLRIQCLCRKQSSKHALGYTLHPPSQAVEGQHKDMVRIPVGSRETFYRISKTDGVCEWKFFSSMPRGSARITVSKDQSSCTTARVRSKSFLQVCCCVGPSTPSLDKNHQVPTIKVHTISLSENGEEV

[2] = molecular target: T2, Alpha-2A adrenergic receptor (Homo sapiens, UniProt P08913); type: functional, cell-based
T2 sequence (P08913 whole entry): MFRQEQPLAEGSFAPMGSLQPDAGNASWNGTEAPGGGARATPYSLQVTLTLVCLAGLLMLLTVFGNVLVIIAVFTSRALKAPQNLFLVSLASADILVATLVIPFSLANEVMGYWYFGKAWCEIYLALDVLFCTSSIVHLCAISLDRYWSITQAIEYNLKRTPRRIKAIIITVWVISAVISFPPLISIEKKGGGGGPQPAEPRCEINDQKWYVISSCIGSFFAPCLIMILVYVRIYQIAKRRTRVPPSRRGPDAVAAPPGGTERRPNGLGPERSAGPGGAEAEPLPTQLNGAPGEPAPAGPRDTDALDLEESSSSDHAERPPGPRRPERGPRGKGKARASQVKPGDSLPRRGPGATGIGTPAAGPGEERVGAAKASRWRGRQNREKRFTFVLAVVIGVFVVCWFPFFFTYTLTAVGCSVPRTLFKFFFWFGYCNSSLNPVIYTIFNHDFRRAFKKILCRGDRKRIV

Cannabinoid receptor 1 = Cannabinoid receptor 1 (Homo sapiens, UniProt P21554); type: functional, cell-based
[3] = molecular target: Growth hormone secretagogue receptor type 1 (Homo sapiens, UniProt Q92847)
[4] = molecular target: T3, Neuropeptide Y receptor type 1 (Homo sapiens, UniProt P25929)
T3 sequence (P25929 whole entry): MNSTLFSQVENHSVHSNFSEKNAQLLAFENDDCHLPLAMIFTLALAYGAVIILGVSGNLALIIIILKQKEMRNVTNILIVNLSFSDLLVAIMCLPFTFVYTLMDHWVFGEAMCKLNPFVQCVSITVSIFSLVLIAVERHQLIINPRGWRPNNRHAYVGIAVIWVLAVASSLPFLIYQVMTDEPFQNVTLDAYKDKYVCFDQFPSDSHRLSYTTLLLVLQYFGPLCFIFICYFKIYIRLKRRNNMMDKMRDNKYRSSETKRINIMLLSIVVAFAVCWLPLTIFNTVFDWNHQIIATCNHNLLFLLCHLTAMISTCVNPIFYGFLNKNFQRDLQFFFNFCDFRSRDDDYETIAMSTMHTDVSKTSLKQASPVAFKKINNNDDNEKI

[5] = molecular target: T4, Equilibrative nucleoside transporter 1 (Homo sapiens, UniProt Q99808)
T4 sequence (Q99808 whole entry): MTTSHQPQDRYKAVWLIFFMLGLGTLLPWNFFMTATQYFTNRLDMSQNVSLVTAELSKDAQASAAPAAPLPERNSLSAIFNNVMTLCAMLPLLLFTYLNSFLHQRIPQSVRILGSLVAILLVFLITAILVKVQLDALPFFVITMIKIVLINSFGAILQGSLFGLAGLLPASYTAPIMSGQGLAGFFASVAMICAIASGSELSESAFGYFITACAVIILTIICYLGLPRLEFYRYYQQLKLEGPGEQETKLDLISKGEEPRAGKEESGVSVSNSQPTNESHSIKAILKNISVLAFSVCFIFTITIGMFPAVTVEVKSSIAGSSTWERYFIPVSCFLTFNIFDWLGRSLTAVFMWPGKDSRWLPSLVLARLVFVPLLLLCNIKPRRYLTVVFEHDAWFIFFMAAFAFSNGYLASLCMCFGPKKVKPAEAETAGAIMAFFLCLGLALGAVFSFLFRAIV

[6] = molecular target: T5, Amine oxidase [flavin-containing] A (Homo sapiens, UniProt P21397); type: functional
T5 sequence (P21397 whole entry): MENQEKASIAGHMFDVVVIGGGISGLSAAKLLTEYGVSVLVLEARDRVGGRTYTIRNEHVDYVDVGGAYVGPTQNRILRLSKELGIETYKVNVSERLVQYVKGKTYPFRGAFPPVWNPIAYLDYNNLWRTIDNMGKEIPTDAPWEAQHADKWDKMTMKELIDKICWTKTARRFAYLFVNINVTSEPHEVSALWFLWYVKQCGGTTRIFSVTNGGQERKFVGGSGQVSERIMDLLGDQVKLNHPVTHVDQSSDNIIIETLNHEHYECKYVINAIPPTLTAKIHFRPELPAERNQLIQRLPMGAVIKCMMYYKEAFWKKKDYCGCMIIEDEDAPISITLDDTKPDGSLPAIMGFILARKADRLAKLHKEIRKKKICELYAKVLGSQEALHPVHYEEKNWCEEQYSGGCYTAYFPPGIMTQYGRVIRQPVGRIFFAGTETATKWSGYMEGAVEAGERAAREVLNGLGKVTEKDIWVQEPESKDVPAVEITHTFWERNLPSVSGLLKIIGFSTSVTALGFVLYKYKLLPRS
Also: assay procedure not described here.

Chain of Growth hormone secretagogue receptor type 1 (Q92847 whole entry): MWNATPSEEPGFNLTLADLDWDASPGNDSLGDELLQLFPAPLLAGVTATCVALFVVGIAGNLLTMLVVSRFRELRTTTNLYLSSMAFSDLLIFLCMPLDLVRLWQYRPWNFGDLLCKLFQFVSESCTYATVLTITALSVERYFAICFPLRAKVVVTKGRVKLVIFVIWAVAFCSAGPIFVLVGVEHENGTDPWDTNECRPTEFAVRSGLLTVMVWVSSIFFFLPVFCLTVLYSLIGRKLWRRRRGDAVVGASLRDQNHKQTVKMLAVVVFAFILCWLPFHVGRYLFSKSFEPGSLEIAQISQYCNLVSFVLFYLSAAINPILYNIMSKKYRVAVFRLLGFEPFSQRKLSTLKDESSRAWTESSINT
Chain of Cannabinoid receptor 1 (P21554 whole entry): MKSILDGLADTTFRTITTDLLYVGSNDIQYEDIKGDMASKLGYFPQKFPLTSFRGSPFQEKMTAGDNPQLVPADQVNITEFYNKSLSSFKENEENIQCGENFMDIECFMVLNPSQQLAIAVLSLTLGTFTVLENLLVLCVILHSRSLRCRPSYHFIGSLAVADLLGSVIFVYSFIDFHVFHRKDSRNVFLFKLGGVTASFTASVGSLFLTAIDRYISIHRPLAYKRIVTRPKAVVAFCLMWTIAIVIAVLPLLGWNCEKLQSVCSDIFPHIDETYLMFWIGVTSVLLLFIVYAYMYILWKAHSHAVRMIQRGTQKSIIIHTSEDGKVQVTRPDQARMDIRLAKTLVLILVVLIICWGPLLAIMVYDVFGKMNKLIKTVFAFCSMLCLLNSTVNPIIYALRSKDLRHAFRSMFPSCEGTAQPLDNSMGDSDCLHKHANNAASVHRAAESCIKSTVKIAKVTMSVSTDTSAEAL

Structure (SMILES): COc1ccc(-c2ccc3cc(C(=O)O)ccc3c2)cc1C12CC3CC(CC(C3)C1)C2
- AC50 [1]: > 30 µM
- AC50 [2]: > 30 µM
- AC50 (Cannabinoid receptor 1): > 30 µM
- AC50 [3]: > 30 µM
- AC50 [4]: > 30 µM
- AC50 [5]: > 30 µM
- AC50 [6]: > 30 µM

Structure (SMILES): CNS(=O)(=O)Cc1ccc2[nH]cc(CCN(C)C)c2c1
- AC50 [1]: > 30 µM
- AC50 [2]: > 30 µM
- AC50 (Cannabinoid receptor 1): > 30 µM
- AC50 [3]: > 30 µM
- AC50 [4]: > 30 µM
- AC50 [5]: > 30 µM
- AC50 [6]: > 30 µM

Structure (SMILES): COc1ccccc1N1CCN(CCCNc2cc(=O)n(C)c(=O)n2C)CC1
- AC50 [1]: > 30 µM
- AC50 [2]: > 30 µM
- AC50 (Cannabinoid receptor 1): > 30 µM
- AC50 [3]: > 30 µM
- AC50 [4]: > 30 µM
- AC50 [5]: > 30 µM
- AC50 [6]: > 30 µM

Structure (SMILES): CCOC(=O)[C@H](CCc1ccccc1)N[C@@H](C)C(=O)N1C(=O)N(C)C[C@H]1C(=O)O
- AC50 [1]: > 30 µM
- AC50 [2]: > 30 µM
- AC50 (Cannabinoid receptor 1): > 30 µM
- AC50 [3]: > 30 µM
- AC50 [4]: > 30 µM
- AC50 [5]: > 30 µM
- AC50 [6]: > 30 µM

Structure (SMILES): CC=CC(=O)N(CC)c1ccccc1C
- AC50 [1]: > 30 µM
- AC50 [2]: > 10 µM
- AC50 (Cannabinoid receptor 1): > 30 µM
- AC50 [3]: > 10 µM
- AC50 [4]: > 10 µM
- AC50 [5]: > 10 µM
- AC50 [6]: > 10 µM

Structure (SMILES): CC(C)(C)C(=O)Oc1ccc(S(=O)(=O)Nc2ccccc2C(=O)NCC(=O)O)cc1
- AC50 [2]: > 30 µM
- AC50 (Cannabinoid receptor 1): > 30 µM
- AC50 [3]: > 30 µM
- AC50 [4]: > 30 µM
- AC50 [6]: > 30 µM

Structure (SMILES): CC(=O)O[C@H]1CC[C@@]2(C)C(=CC[C@@H]3[C@@H]2CC[C@]2(C)C(c4cccnc4)=CC[C@@H]32)C1 [ABIRATERONE ACETATE]
- AC50 [1]: > 30 µM
- AC50 [2]: > 30 µM
- AC50 (Cannabinoid receptor 1): > 30 µM
- AC50 [3]: > 30 µM
- AC50 [5]: > 30 µM
- AC50 [6]: > 30 µM

Structure (SMILES): O=C(O)CCCCCCNC1c2ccccc2CCc2ccccc21 [AMINEPTINE]
- AC50 [1]: > 30 µM
- AC50 [2]: > 30 µM
- AC50 (Cannabinoid receptor 1): > 30 µM
- AC50 [3]: > 30 µM
- AC50 [4]: > 30 µM
- AC50 [5]: > 30 µM
- AC50 [6]: > 30 µM

Structure (SMILES): NCC(=O)CCC(=O)O [AMINOLEVULINIC ACID]
- AC50 [1]: > 30 µM
- AC50 [2]: > 30 µM
- AC50 (Cannabinoid receptor 1): > 30 µM
- AC50 [3]: > 30 µM
- AC50 [4]: > 30 µM
- AC50 [6]: > 30 µM

Structure (SMILES): COc1ccccc1OCCNCC(O)c1ccc(C)c(S(N)(=O)=O)c1 (stereo not given) [AMOSULALOL]
- AC50 [1]: 0.32 µM
- AC50 [2]: > 30 µM
- AC50 (Cannabinoid receptor 1): > 30 µM
- AC50 [3]: > 30 µM
- AC50 [4]: > 30 µM
- AC50 [5]: > 30 µM
- AC50 [6]: > 30 µM

Structure (SMILES): CCOC(=O)OC(C)OC1=C(C(=O)Nc2ccccn2)N(C)S(=O)(=O)c2ccccc21 (stereo not given) [AMPIROXICAM]
- AC50 [1]: > 30 µM
- AC50 [2]: > 30 µM
- AC50 (Cannabinoid receptor 1): > 30 µM
- AC50 [3]: > 30 µM
- AC50 [4]: > 30 µM
- AC50 [5]: > 30 µM
- AC50 [6]: > 30 µM

Structure (SMILES): CC(C[N+](C)(C)C)OC(N)=O (stereo not given) [BETHANECHOL]
- AC50 [2]: > 10 µM
- AC50 (Cannabinoid receptor 1): > 30 µM
- AC50 [3]: > 10 µM
- AC50 [4]: > 10 µM
- AC50 [5]: > 10 µM
- AC50 [6]: > 10 µM

Structure (SMILES): Nc1nc(/C(=C/CC(=O)O)C(=O)N[C@@H]2C(=O)N3C(C(=O)O)=CCS[C@H]23)cs1 [CEFTIBUTEN]
- AC50 [1]: > 30 µM
- AC50 [2]: > 30 µM
- AC50 [3]: > 30 µM
- AC50 [4]: > 30 µM
- AC50 [5]: > 30 µM
- AC50 [6]: > 30 µM
